From PubChem BioAssay AID248 (DTP/NCI, 2004)
“And” between values parts separate entries of the source, which are not always exact repeats. Equal values may be shown once. Inconclusive results and toxic doses are left out. Cut-off read from the data, not from the text of the source: active = T/C of 150% or more; inactive = T/C below 125%.

Test system: L1210 leukemia ip in BDF1 mice, survival T/C
Assay: NCI In Vivo Anticancer Drug Screen. Data for tumor model L1210 Leukemia (intraperitoneal) in B6D2F1 (BDF1) mice
Details: endpoint: mean survival time, higher = longer survival
Procedure, shortened: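 Ratio derived from survival: compound-dosed mice over vehicle-dosed mice, all bearing a transplantable tumor.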

[1] = dose: 100.0 mg/kg/injection, schedule: Q04DX002 (ip), vehicle: Klucel (hydroxypropylcellulose) (HPC)
[2] = dose: 200.0 mg/kg/injection, schedule: Q04DX002 (ip), vehicle: Klucel (hydroxypropylcellulose) (HPC)
[3] = dose: 400.0 mg/kg/injection, schedule: Q04DX002 (ip), vehicle: Klucel (hydroxypropylcellulose) (HPC)
[4] = dose: 100.0 mg/kg/injection, schedule: Q01DX001 (ip), vehicle: saline
[5] = dose: 200.0 mg/kg/injection, schedule: Q01DX001 (ip), vehicle: saline
[6] = dose: 400.0 mg/kg/injection, schedule: Q01DX001 (ip), vehicle: saline
[7] = dose: 100.0 mg/kg/injection, schedule: Q04DX003 (ip), vehicle: Klucel (hydroxypropylcellulose) (HPC)
[8] = dose: 200.0 mg/kg/injection, schedule: Q04DX003 (ip), vehicle: Klucel (hydroxypropylcellulose) (HPC)
[9] = dose: 400.0 mg/kg/injection, schedule: Q04DX003 (ip), vehicle: Klucel (hydroxypropylcellulose) (HPC)
[10] = dose: 100.0 mg/kg/injection, schedule: Q01DX001 (ip), vehicle: Klucel (hydroxypropylcellulose) (HPC)
[11] = dose: 200.0 mg/kg/injection, schedule: Q01DX001 (ip), vehicle: Klucel (hydroxypropylcellulose) (HPC)
[12] = dose: 400.0 mg/kg/injection, schedule: Q01DX001 (ip), vehicle: Klucel (hydroxypropylcellulose) (HPC)
[13] = dose: 100.0 mg/kg/injection, schedule: Q04DX003 (ip), vehicle: saline with Tween-80
[14] = dose: 200.0 mg/kg/injection, schedule: Q04DX003 (ip), vehicle: saline with Tween-80
[15] = dose: 400.0 mg/kg/injection, schedule: Q04DX003 (ip), vehicle: saline with Tween-80
[16] = dose: 100.0 mg/kg/injection, schedule: Q01DX009 (ip), vehicle: Klucel (hydroxypropylcellulose) (HPC)
[17] = dose: 200.0 mg/kg/injection, schedule: Q01DX009 (ip), vehicle: Klucel (hydroxypropylcellulose) (HPC)
[18] = dose: 400.0 mg/kg/injection, schedule: Q01DX009 (ip), vehicle: Klucel (hydroxypropylcellulose) (HPC)

Measured: T/C

COC(=O)C(=O)CC(=O)c1ccccc1
inactive: [1] 116 % of control | [2] 106 % of control | [3] 118 % of control

CCOCCOC(=O)c1ccc(C(N)=NC2CCCCC2)cc1
inactive: [4] 100 % of control | [5] 102 % of control | [6] 90 % of control

N=c1ccn(CC(O)COc2ccccc2)cc1 (stereo not drawn)
inactive: [4] 102 % of control

O=C(c1ccccc1)N(c1ccccc1)c1ccccc1
inactive: dose: 50.0 mg/kg/injection, schedule: Q01DX001 (ip), vehicle: carboxymethylcellulose (CMC) 107 % of control | dose: 100.0 mg/kg/injection, schedule: Q01DX001 (ip), vehicle: carboxymethylcellulose (CMC) 101 % of control | dose: 200.0 mg/kg/injection, schedule: Q01DX001 (ip), vehicle: carboxymethylcellulose (CMC) 107 % of control | dose: 400.0 mg/kg/injection, schedule: Q01DX001 (ip), vehicle: carboxymethylcellulose (CMC) 103 % of control

O=C/C=C/c1cccc([N+](=O)[O-])c1
inactive: dose: 50.0 mg/kg/injection, schedule: Q01DX001 (ip), vehicle: saline 102 % of control | [4] 107 % of control | [5] 111 % of control

Cc1nc2[nH]c(=O)[nH]c(=O)c2nc1C
inactive: dose: 16.0 mg/kg/injection, schedule: Q01DX Z (ip), vehicle: methylcellulose (MC) 100 % of control | dose: 31.0 mg/kg/injection, schedule: Q01DX Z (ip), vehicle: methylcellulose (MC) 95 % of control | dose: 62.0 mg/kg/injection, schedule: Q01DX Z (ip), vehicle: methylcellulose (MC) 87 % of control | dose: 100.0 mg/kg/injection, schedule: Q01DX001 (ip), vehicle: other 104 % of control | dose: 100.0 mg/kg/injection, schedule: Q04DX003 (ip), vehicle: other 96 % of control | dose: 125.0 mg/kg/injection, schedule: Q01DX Z (ip), vehicle: methylcellulose (MC) 92 % of control and 93 % of control | dose: 200.0 mg/kg/injection, schedule: Q01DX001 (ip), vehicle: other 107 % of control | dose: 200.0 mg/kg/injection, schedule: Q04DX003 (ip), vehicle: other 104 % of control | dose: 250.0 mg/kg/injection, schedule: Q01DX Z (ip), vehicle: methylcellulose (MC) 89 % of control | dose: 400.0 mg/kg/injection, schedule: Q01DX001 (ip), vehicle: other 102 % of control | dose: 400.0 mg/kg/injection, schedule: Q04DX003 (ip), vehicle: other 96 % of control | dose: 500.0 mg/kg/injection, schedule: Q01DX Z (ip), vehicle: methylcellulose (MC) 89 % of control

O=C(Nc1nccs1)Nc1cc([N+](=O)[O-])ccc1F
inactive: [7] 88 % of control | [8] 91 % of control | [9] 88 % of control

O=C(/C(=C\c1ccccc1)c1ccccc1)c1ccc(O)cc1
inactive: [4] 98 % of control | [5] 101 % of control | [6] 101 % of control

CCCCCCCCc1c(N)nc(N)[nH]c1=O
inactive: [10] 99 % of control | [11] 92 % of control | [12] 92 % of control

CSc1nc(Cl)c(-c2ccccc2)c(N2CC2)n1
inactive: dose: 25.0 mg/kg/injection, schedule: Q01DX Z (ip), vehicle: methylcellulose (MC) 98 % of control | dose: 50.0 mg/kg/injection, schedule: Q01DX Z (ip), vehicle: methylcellulose (MC) 90 % of control

c1ccc2c(c1)Cc1ccccc1CN(CCNC1=NCCN1)C2
inactive: dose: 25.0 mg/kg/injection, schedule: Q01DX009 (ip), vehicle: saline with Tween-80 91 % of control | dose: 50.0 mg/kg/injection, schedule: Q01DX009 (ip), vehicle: saline with Tween-80 102 % of control | [13] 98 % of control

CCc1nc(NS(=O)(=O)c2ccc(N)cc2)nc(-c2ccccc2)c1-c1ccccc1O
inactive: [1] 87 % of control | [2] 91 % of control | [3] 95 % of control

Cc1cc(C)c(F)c(-c2c(N)c(C)cc(C)c2F)c1N
inactive: dose: 50.0 mg/kg/injection, schedule: Q01DX001 (ip), vehicle: Klucel (hydroxypropylcellulose) (HPC) 106 % of control | [10] 101 % of control | [11] 96 % of control

CC12NC(=O)NC1(C)NC(=O)N2 (stereo not drawn)
inactive: dose: 25.0 mg/kg/injection, schedule: Q01DX009 (ip), vehicle: saline 89 % of control | dose: 50.0 mg/kg/injection, schedule: Q01DX009 (ip), vehicle: saline 95 % of control | dose: 100.0 mg/kg/injection, schedule: Q01DX009 (ip), vehicle: saline 96 % of control and 89 % of control | [13] 96 % of control | dose: 200.0 mg/kg/injection, schedule: Q01DX009 (ip), vehicle: saline 100 % of control | [14] 102 % of control | [15] 96 % of control

CC(=O)Nc1cccc2ccc([N+](=O)[O-])cc12
inactive: [16] 96 % of control | [7] 94 % of control | [17] 98 % of control | [8] 105 % of control | [18] 98 % of control | [9] 98 % of control

NCC(=O)Oc1c(Cl)c(Cl)c(Cl)c(Cl)c1Cl
inactive: dose: 75.0 mg/kg/injection, schedule: Q01DX001 (ip), vehicle: saline 104 % of control

O=c1ccc2c(-c3cc(S(=O)(=O)O)ccc3O)c3ccc(O)cc3oc-2c1
inactive: [7] 91 % of control | [8] 89 % of control | [9] 91 % of control

O=C(Nc1ccccc1)Nc1nccs1
inactive: [4] 102 % of control | [7] 105 % of control | [5] 106 % of control | [8] 100 % of control | [6] 101 % of control

c1ccc(-c2ccc(-c3ccccc3)c(-c3ccc4c(c3)CCC4)c2-c2ccccc2)cc1
inactive: [13] 96 % of control | [14] 96 % of control | [15] 89 % of control

CC1(c2ccco2)NC(=O)NC1=O (stereo not drawn)
inactive: [16] 94 % of control | dose: 100.0 mg/kg/injection, schedule: Q01DX009 (ip), vehicle: saline with Tween-80 91 % of control | [13] 111 % of control and 101 % of control | [17] 100 % of control | dose: 200.0 mg/kg/injection, schedule: Q01DX009 (ip), vehicle: saline with Tween-80 95 % of control | [14] 104 % of control and 114 % of control | [18] 105 % of control | dose: 400.0 mg/kg/injection, schedule: Q01DX009 (ip), vehicle: saline with Tween-80 98 % of control | [15] 111 % of control and 101 % of control

CCCCCCCCCCCCCCCCOc1c(Br)cc(Br)cc1Br
inactive: [10] 87 % of control | [11] 90 % of control | [12] 105 % of control

CCOC(=O)C1(C(=O)OCC)CCC(O)N1C(=O)c1cc2c(cc1[N+](=O)[O-])OCO2 (stereo not drawn)
inactive: [7] 91 % of control | [8] 99 % of control | [9] 100 % of control

O=C(O)c1ccc(NO)cc1
inactive: dose: 24.0 mg/kg/injection, schedule: Q01DX Z (ip), vehicle: methylcellulose (MC) 103 % of control | dose: 36.0 mg/kg/injection, schedule: Q01DX Z (ip), vehicle: methylcellulose (MC) 100 % of control | dose: 55.0 mg/kg/injection, schedule: Q01DX Z (ip), vehicle: methylcellulose (MC) 102 % of control | dose: 83.0 mg/kg/injection, schedule: Q01DX Z (ip), vehicle: methylcellulose (MC) 93 % of control

CCCCC(O)(CCCC)C(CC)CC
inactive: [13] 108 % of control | [14] 99 % of control | [15] 101 % of control
